The text below walks through data of US20150377876A1, “DIAGNOSTIC TOOLS TO PREDICT ONSET OF PREECLAMPSIA” (UNIVERSITY OF IOWA RESEARCH FOUNDATION, priority 2013, published 2015).

Where two headings read alike, the source gives them in different places.

The conditions of data set [1]: in blood; cited from earlier work.
In the next data set the test system is abdominal aorta. Conditions: abdominal aorta; for EC50: read-out: EC50, contractile response.
A further data set relates to C57B1/6J mice. The experiment in a line: Vasopressin infusion during pregnancy, preeclampsia-like phenotypes. Format: in vivo. On the procedure:
Animal Studies: Female C57B1/6J mice were obtained from Jackson Laboratories between 8-12 weeks of age. Osmotic minipumps infusing vasopressin (240 ng/hr) or saline vehicle were inserted into the subcutaneous space via incision between the scapulae. Following three days of recovery, females were mated with male C57B1/6J mice. Presence of a vaginal plug indicated gestational day 0.5. Blood pressure was tracked before mating and throughout gestation by tail-cuff plethysmography. On gestational day 18, females were sacrificed for necropsy. Pup weight was recorded. Dam kidney sections were generated and imaged by electron microscopy by the University of Iowa Department of Pathology. All studies were approved by the University of Iowa Animal Care and Use Committee (ACURF#1211239).

The subject of data set [2] is 2°-branch mesenteric artery. As to the kind of experiment: tissue or blood. Set-up: species or system mice. The note with it: mesenteric artery; for EC50: read-out: EC50, contractile response. Here is the method: Mesenteric Artery Vascular Reactivity: Secondary branches of mesenteric artery were dissected and placed in chilled oxygenated (21% O2, 5% CO2, and 74% N2) Kreb's buffer. A segment (˜1 mm long) of artery was transferred to a vessel chamber (DMT), cannulated with glass micropipettes and secured with silk ligatures. The artery was slowly pressurized to 40 mmHg without flow. After 30 min equilibration, vessel viability was tested by constriction response to 100 mM KCl. Vascular responses to PE (10-9-10-5 mol/L), AVP (10-12-10-7 mol/L), and ET-1 (10-11-10-8 mol/L) were then assessed. The artery was then superfused with calcium-free Krebs buffer containing 10-5 mol/L sodium nitroprusside and 2 mmol/L EGTA to maximally dilate the vessel. Internal and external diameters were measured at 75 mm Hg. Wall thickness, media/lumen ratio and cross sectional area (CSA) were calculated as previously described by Neves, et al. (58).
Statistics: Data were analyzed by ANOVA with repeated measures as appropriate. Post-hoc analyses were performed using Bonferroni multiple-comparisons procedures. EC50 and maximum response calculations were performed by fitting individual dose-response data sets to a four-parameter logistic function (Hillslope method); y=min+(max−min)/(1+(x/EC50)̂Hill slope). All mRNA fold changes were calculated using the Livak method (51). All analytical comparisons were performed using SigmaStat/SigmaPlot (Systat). All data are presented as mean±sem.

By EC50 is commonly meant the midpoint of the concentration-response curve.

Method for abdominal aorta: Aortic Vascular Reactivity: Abdominal aortic rings were assessed for vascular reactivity as previously described (30). Briefly, mice were euthanized by overdose of pentobarbital (50 mg, i.p.), and the abdominal aorta was quickly removed and placed in Kreb's buffer containing (in mmol/L): 118.3 NaCl, 4.7 KCl, 1.2 MgSO4, 1.2 KH2PO4, 25 NaHCO3, 2.5 CaCl2 and 11 glucose. Vascular rings (4-5 mm in length) were suspended in oxygenated Kreb's buffer (95% O2/5% CO2) in organ baths at 37° C. and connected to a force transducer via steel hooks. Resting tension was adjusted to 0.5 grams over 45 minutes.
Statistics: Data were analyzed by ANOVA with repeated measures as appropriate. Post-hoc analyses were performed using Bonferroni multiple-comparisons procedures. EC50 and maximum response calculations were performed by fitting individual dose-response data sets to a four-parameter logistic function (Hillslope method); y=min+(max−min)/(1+(x/EC50)̂Hill slope). […] All analytical comparisons were performed using SigmaStat/SigmaPlot (Systat). All data are presented as mean±sem.

`NC(=O)CC[C@@H]1NC(=O)[C@H](Cc2ccccc2)NC(=O)[C@H](Cc2ccc(O)cc2)NC(=O)[C@@H](N)CSSC[C@@H](C(=O)N2CCC[C@H]2C(=O)N[C@@H](CCCN=C(N)N)C(=O)NCC(N)=O)NC(=O)[C@H](CC(N)=O)NC1=O` [Arginine vasopressin, arginine vasopressin]: the biological half-life in data set [1] is 5-20 minutes. Further, the “Maximum Response, contraction” value in the data set with abdominal aorta (male control littermate mice) was 0.29 ± 0.03 g; in the data set with abdominal aorta (male sRA mice) it was 0.12 ± 0.01 g; in data set [2] (male control littermate mice) it was 52.5 ± 3.2%. The EC50 in the data set with abdominal aorta (male control littermate mice) worked out at 2.19 ± 0.19 nM; in the data set on abdominal aorta (male sRA mice) it was 3.72 ± 0.73 nM; in data set [2] (male control littermate mice) it was 0.57 ± 0.15 nM; in data set [2] (male sRA mice), 15.9 ± 13.5 nM. Besides, in the data set with C57B1/6J mice (dam kidney, gestational day 18, 240 ng/hr sc minipump), the “renal pathology (electron microscopy)” value is “pathognomic glomerular endotheliosis”. Besides, the “rate of pregnancy (fecundity)” value in the data set with C57B1/6J mice (female C57B1/6J mice, 240 ng/hr sc minipump) is listed as “significantly reduced the rate of pregnancy”. Besides, the fetal growth result with C57B1/6J mice (gestational day 18 fetuses, 240 ng/hr sc minipump) is “substantial fetal growth restriction”. Also, the proteinuria result in the data set on C57B1/6J mice (pregnant C57B1/6J mice, 240 ng/hr sc minipump) is reported as “apparent proteinuria”. Further, the “blood pressure during pregnancy” value in the data set with C57B1/6J mice (pregnant C57B1/6J mice, 240 ng/hr sc minipump, tail-cuff) is “robust increase in blood pressure”.
